Test results as given in patent US20230382949A1 (HEPTARES THERAPEUTICS LIMITED, priority 2020, published 2023).
Where two headings read alike, the source gives them in different places. Starred links: 1 amine or outer side, 2 acyl side, 3 side chain; linkers in the order of their positions; H or OH if unused. Non-standard residues stand in square brackets, D forms with d. Residues, ends and D or L forms follow the SMILES beside them. *: point of attachment. Ala(piperidin-4-yl) = O=C([C@H](CC1CCN([*:3])CC1)N[*:1])[*:2]; Malonyl(2,2-Me2,histaminyl) = CC(C)(C(=O)NCCc1cnc[nH]1)C(=O)*; Ala(1-imidazolyl) = N[C@@H](Cn1ccnc1)C(=O)O; dBip = N[C@H](Cc1ccc(-c2ccccc2)cc1)C(=O)O; Oic = O=C(O)[C@@H]1C[C@@H]2CCCC[C@@H]2N1; Phe(4-Br) = N[C@@H](Cc1ccc(Br)cc1)C(=O)O; X4 = CC(C)(C(=O)NCCCc1cnc[nH]1)C(=O)*; X5 = CC(C)(C(=O)NCc1c[nH]cn1)C(=O)*; hArg = N=C(N)NCCCC[C@H](N)C(=O)O; hPhe = N[C@@H](CCc1ccccc1)C(=O)O; NMeQ = CN[C@@H](CCC(N)=O)C(=O)O; NMeL = CN[C@@H](CC(C)C)C(=O)O; Cba = N[C@@H](CC1CCC1)C(=O)O; Pip = O=C(O)[C@@H]1CCCCN1; Nle = CCCC[C@H](N)C(=O)O; Aib = CC(C)(N)C(=O)O

What was measured:
human Apelin receptor [1] = biological target: T1, human Apelin receptor (Homo sapiens, UniProt P35414); test: β-arrestin accumulation assay, functional agonism of human Apelin receptors; format: cell-based
T1 construct: host or cells: CHO-K1 cells
Protocol: β-arrestin assay. […] After 16 h incubation at 37° C. media was removed and cells were incubated at 37° C. for 90 min in serum free media containing increasing concentrations of test agonist. The assay reaction was stopped by adding detection reagent (DiscoveRx) and incubation for 60 min in the dark. Levels of receptor activation were then measured on a PheraStar fluorescence plate reader (BMG LabTech) and EC50 values were determined using Graphpad Prism.
T1 sequence (P32121 whole entry partner, one chain of several): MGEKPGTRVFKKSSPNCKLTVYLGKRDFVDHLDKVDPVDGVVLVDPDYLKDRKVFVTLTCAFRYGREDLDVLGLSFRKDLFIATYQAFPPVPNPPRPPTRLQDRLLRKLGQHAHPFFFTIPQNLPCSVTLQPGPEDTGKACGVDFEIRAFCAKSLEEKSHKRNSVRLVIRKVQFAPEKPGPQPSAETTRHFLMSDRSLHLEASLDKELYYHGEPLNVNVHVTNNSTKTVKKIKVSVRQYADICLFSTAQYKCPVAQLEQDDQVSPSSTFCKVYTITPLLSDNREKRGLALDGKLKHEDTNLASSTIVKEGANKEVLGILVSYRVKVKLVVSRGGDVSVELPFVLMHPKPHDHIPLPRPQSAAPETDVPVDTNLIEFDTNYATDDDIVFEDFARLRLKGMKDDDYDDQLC

human Apelin receptor [2] = biological target: T2, human Apelin receptor (Homo sapiens, UniProt P35414); test: cAMP accumulation assay (HTRF), functional agonism of human Apelin receptors; format: cell-based; conditions: for Emax: CHO
T2 sequence (P35414 1-380): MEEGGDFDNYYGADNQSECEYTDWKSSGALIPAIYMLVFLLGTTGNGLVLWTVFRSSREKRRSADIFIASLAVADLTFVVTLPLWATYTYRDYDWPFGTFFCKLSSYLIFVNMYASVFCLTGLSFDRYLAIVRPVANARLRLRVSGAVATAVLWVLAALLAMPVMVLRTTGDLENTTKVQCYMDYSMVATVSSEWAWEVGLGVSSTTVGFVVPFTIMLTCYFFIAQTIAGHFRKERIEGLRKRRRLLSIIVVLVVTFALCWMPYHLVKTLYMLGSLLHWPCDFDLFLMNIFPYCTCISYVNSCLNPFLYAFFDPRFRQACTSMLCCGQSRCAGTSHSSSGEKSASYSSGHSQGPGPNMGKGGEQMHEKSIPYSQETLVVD
Source text: cAMP functional assay. cAMP production was quantified using the Homogeneous Time-Resolved Fluorescence (HTRF) cAMP dynamic-2 assay (Cisbio, France).

[3] = Human Apelin agonist cAMP assay, CHO cells stably expressing the human Apelin receptor, 3 uM forskolin
[4] = pEC50, Human Apelin agonist cAMP assay, CHO cells stably expressing the human Apelin receptor, 3 uM forskolin

Compound	EC50 (human Apelin receptor [1]) [nM]	Emax (human Apelin receptor [2]; [3]) [%]	EC50 (human Apelin receptor [2]; [4]) [nM]	Emax (human Apelin receptor [2]; read-out: Emax) [%]	EC50 (human Apelin receptor [2]; read-out: pEC50 (converted)) [nM]	Human Apelin agonist β-arrestin assay Emax (human Apelin receptor [1]; CHO-K1 cells overexpressing human Apelin receptor and β-arrestin, Emax only reported for active compounds)
CC(C)C[C@H](NC(=O)[C@@H](CCCNC(=N)N)NC(=O)[C@@H]1CCCCN1C(=O)[C@H](CCCCNC(=N)N)NC(=O)[C@H](CCC(N)=O)NC(=O)[C@@H](CCCNC(=N)N)NC(=O)C(C)(C)C(=O)NCCc1c[nH]cn1)C(=O)NC(C)(C)C(=O)N[C@@H](Cc1c[nH]cn1)C(=O)N[C@@H](CC1CCNCC1)C(=O)NCC(=O)N1[C@H](C(=O)N[C@@H](Cc2ccc(Br)cc2)C(=O)N2CCC[C@H]2C(=O)N[C@H](Cc2ccc(-c3ccccc3)cc2)C(=O)O)C[C@@H]2CCCC[C@@H]21 [Example 12] ({Malonyl(2,2-Me2,histaminyl)}-[dR]Q[hArg][Pip][dR]L[Aib]H[Ala(piperidin-4-yl)]G[Oic][Phe(4-Br)]P[dBip]-OH)	> 10000	98.9	7.94			
CC(C)C[C@H](NC(=O)[C@@H](CCCNC(=N)N)NC(=O)[C@@H]1CCCN1C(=O)[C@H](CCCCNC(=N)N)NC(=O)[C@H](CCC(N)=O)NC(=O)C(C)(C)C(=O)NCCCc1cnc[nH]1)C(=O)NC(C)(C)C(=O)N[C@@H](Cc1c[nH]cn1)C(=O)N[C@@H](CC1CCNCC1)C(=O)NCC(=O)N1[C@H](C(=O)N[C@@H](Cc2ccc(Br)cc2)C(=O)N2CCC[C@H]2C(=O)N[C@H](Cc2ccc(-c3ccccc3)cc2)C(=O)O)C[C@@H]2CCCC[C@@H]21 [Example 61] (X4-Q[hArg]P[dR]L[Aib]H[Ala(piperidin-4-yl)]G[Oic][Phe(4-Br)]P[dBip]-OH)	> 100000	41.8	10			
CC(C)C[C@H](NC(=O)[C@@H](CCCNC(=N)N)NC(=O)[C@@H]1CCCN1C(=O)[C@H](CCCCNC(=N)N)NC(=O)[C@H](CCC(N)=O)NC(=O)[C@@H](CCCNC(=N)N)NC(=O)C(C)(C)C(=O)NCCc1cnc[nH]1)C(=O)NC(C)(C)C(=O)N[C@@H](Cn1ccnc1)C(=O)N[C@@H](CC1CCNCC1)C(=O)NCC(=O)N1[C@H](C(=O)N[C@@H](Cc2ccc(Br)cc2)C(=O)N2CCC[C@H]2C(=O)N[C@H](Cc2ccc(-c3ccccc3)cc2)C(=O)O)C[C@@H]2CCCC[C@@H]21 [Example 28] ({Malonyl(2,2-Me2,histaminyl)}-[dR]Q[hArg]P[dR]L[Aib][Ala(1-imidazolyl)][Ala(piperidin-4-yl)]G[Oic][Phe(4-Br)]P[dBip]-OH)	> 10000	27.4	15.8			
CC(C)(NC(=O)[C@H](CC1CCC1)NC(=O)[C@@H](CCCNC(=N)N)NC(=O)[C@@H]1CCCN1C(=O)[C@H](CCCCNC(=N)N)NC(=O)[C@H](CCC(N)=O)NC(=O)[C@@H](CCCNC(=N)N)NC(=O)C(C)(C)C(=O)NCCc1c[nH]cn1)C(=O)N[C@@H](Cc1c[nH]cn1)C(=O)N[C@@H](CC1CCNCC1)C(=O)NCC(=O)N1[C@H](C(=O)N[C@@H](Cc2ccc(Br)cc2)C(=O)N2CCC[C@H]2C(=O)N[C@H](Cc2ccc(-c3ccccc3)cc2)C(=O)O)C[C@@H]2CCCC[C@@H]21 [Example 14] ({Malonyl(2,2-Me2,histaminyl)}-[dR]Q[hArg]P[dR][Cba][Aib]H[Ala(piperidin-4-yl)]G[Oic][Phe(4-Br)]P[dBip]-OH)	> 10000	77	7.94			
CC(C)C[C@H](NC(=O)[C@@H](CCCNC(=N)N)NC(=O)[C@@H]1CCCN1C(=O)[C@H](CCCCNC(=N)N)NC(=O)[C@H](CCC(N)=O)N(C)C(=O)C(C)(C)C(=O)NCCc1cnc[nH]1)C(=O)NC(C)(C)C(=O)N[C@@H](Cc1c[nH]cn1)C(=O)N[C@@H](CC1CCNCC1)C(=O)NCC(=O)N1[C@H](C(=O)N[C@@H](Cc2ccc(Br)cc2)C(=O)N2CCC[C@H]2C(=O)N[C@H](Cc2ccc(-c3ccccc3)cc2)C(=O)O)C[C@@H]2CCCC[C@@H]21 [Example 58] ({Malonyl(2,2-Me2,histaminyl)}-[NMeQ][hArg]P[dR]L[Aib]H[Ala(piperidin-4-yl)]G[Oic][Phe(4-Br)]P[dBip]-OH)	> 100000	33	794			
CC(C)C[C@@H](C(=O)NC(C)(C)C(=O)N[C@@H](Cc1c[nH]cn1)C(=O)N[C@@H](CC1CCNCC1)C(=O)NCC(=O)N1[C@H](C(=O)N[C@@H](Cc2ccc(Br)cc2)C(=O)N2CCC[C@H]2C(=O)N[C@H](Cc2ccc(-c3ccccc3)cc2)C(=O)O)C[C@@H]2CCCC[C@@H]21)N(C)C(=O)[C@@H](CCCNC(=N)N)NC(=O)[C@@H]1CCCN1C(=O)[C@H](CCCCNC(=N)N)NC(=O)[C@H](CCC(N)=O)NC(=O)C(C)(C)C(=O)NCCc1cnc[nH]1 [Example 51] ({Malonyl(2,2-Me2,histaminyl)}-Q[hArg]P[dR][NMeL][Aib]H[Ala(piperidin-4-yl)]G[Oic][Phe(4-Br)]P[dBip]-OH)	> 10000	27.6	79.4			
CC(C)C[C@H](NC(=O)[C@@H](CCCNC(=N)N)NC(=O)[C@@H]1CCCN1C(=O)[C@H](CCCCNC(=N)N)NC(=O)[C@H](CCC(N)=O)NC(=O)C(C)(C)C(=O)NCCc1cnc[nH]1)C(=O)N[C@@H](CO)C(=O)NC(C)(C)C(=O)N[C@@H](CC1CCNCC1)C(=O)NCC(=O)N1[C@H](C(=O)N[C@@H](Cc2ccc(Br)cc2)C(=O)N2CCC[C@H]2C(=O)N[C@H](Cc2ccc(-c3ccccc3)cc2)C(=O)O)C[C@@H]2CCCC[C@@H]21 [Example 47] ({Malonyl(2,2-Me2,histaminyl)}-Q[hArg]P[dR]LS[Aib][Ala(piperidin-4-yl)]G[Oic][Phe(4-Br)]P[dBip]-OH)	> 1000	94.2	12.6			
CC(C)C[C@H](NC(=O)[C@@H](CCCNC(=N)N)NC(=O)[C@@H]1CCCN1C(=O)[C@H](CCCCNC(=N)N)NC(=O)[C@H](CCC(N)=O)NC(=O)C(C)(C)C(=O)NCc1c[nH]cn1)C(=O)NC(C)(C)C(=O)N[C@@H](Cc1c[nH]cn1)C(=O)N[C@@H](CC1CCNCC1)C(=O)NCC(=O)N1[C@H](C(=O)N[C@@H](Cc2ccc(Br)cc2)C(=O)N2CCC[C@H]2C(=O)N[C@H](Cc2ccc(-c3ccccc3)cc2)C(=O)O)C[C@@H]2CCCC[C@@H]21 [Example 53] (X5-Q[hArg]P[dR]L[Aib]H[Ala(piperidin-4-yl)]G[Oic][Phe(4-Br)]P[dBip]-OH)	> 10000			79.2	31.6	
CCCC[C@H](NC(=O)[C@@H]1C[C@@H]2CCCC[C@@H]2N1C(=O)CNC(=O)[C@H](CC1CCNCC1)NC(=O)[C@H](Cc1c[nH]cn1)NC(=O)[C@@H](C)NC(=O)[C@H](CC(C)C)NC(=O)[C@H](CCCNC(=N)N)NC(=O)[C@@H]1CCCN1C(=O)[C@H](CCCNC(=N)N)NC(=O)[C@H](CCC(N)=O)NC(=O)C(C)(C)C(=O)NCCc1cnc[nH]1)C(=O)N1CCC[C@H]1C(=O)N[C@H](Cc1ccc(-c2ccccc2)cc1)C(=O)O [Example 59] ({Malonyl(2,2-Me2,histaminyl)}-QRPRL[dA]H[Ala(piperidin-4-yl)]G[Oic][Nle]P[dBip]-OH)	> 10000	48.1	100			
CC(C)C[C@H](NC(=O)[C@@H](CCCNC(=N)N)NC(=O)[C@@H]1CCCN1C(=O)[C@H](CCCCNC(=N)N)NC(=O)[C@H](CCc1ccccc1)NC(=O)[C@@H](CCCNC(=N)N)NC(=O)C(C)(C)C(=O)NCCc1c[nH]cn1)C(=O)NC(C)(C)C(=O)N[C@@H](Cc1c[nH]cn1)C(=O)N[C@@H](CC1CCNCC1)C(=O)NCC(=O)N1[C@H](C(=O)N[C@@H](Cc2ccc(Br)cc2)C(=O)N2CCC[C@H]2C(=O)N[C@H](Cc2ccc(-c3ccccc3)cc2)C(=O)O)C[C@@H]2CCCC[C@@H]21 [Example 8] ({Malonyl(2,2-Me2,histaminyl)}-[dR][hPhe][hArg]P[dR]L[Aib]H[Ala(piperidin-4-yl)]G[Oic][Phe(4-Br)]P[dBip]-OH)	> 10000	56.1	15.8			
Apelin [reference compound]						165.8
